Laboratory results published in EP0028959A1, “5,8,13,13a-Tetrahydro-6H-dibenzo(a,g)quinolizine derivatives, process for their preparation and pharmaceutical compositions containing them” (U.R.P.H.A., priority 1979, dated 1981).
Like-named read-outs stand apart in the source and are kept apart here.

Key:
[1] = test system: oreillette gauche isolée de cobaye; assay: Contractile force of electrically stimulated isolated guinea pig left atrium; type: cell-based; conditions: for effet sur la force contractile: result in words, comment on tableau 3
Source text: (§1) Les effets sur le rythme et sur la concentration cardiaques ont été respectivement mis en évidence sur l'oreillette droite battant spontanément et sur l'oreillette gauche stimulée électriquement, suivant la technique décrite par GROSSMANN A., FURCHGOTT R. (J. Pharmacol. Exp. Ther. 1964, 143, 107-119).

[2] = test system: effets hypertenseurs de l'adrénaline chez le chien; conditions: Raymond Hamet 1952, 1953; cited from earlier work
artère caudale proximale = assay: Inhibition of phenylephrine-induced contraction of isolated rat caudal artery, proximal segment; type: cell-based; conditions: read-out: EFFET SUR L'ARTERE CAUDALE DE RAT I50 SEGMENT PROXIMAL
Source text: (§2) L'inhibition des réponses contractiles maximales provoquées par la Phényléphrine ([…]) a été étudiée sur l'aorte isolée du rat préparée suivant la technique décrite par VALETTE,G. et BA MUOI, N. (Ann. Pharm. franc. 1962, 20, 557-582) et sur le segment proximal et le segment distal de l'artère caudale suivant la technique-décrite par WORCEL, M. (J. Pharmacol. Exp. Therm. 1978, 207, 210-330). Dans tous les cas, les dérivés STB se sont comportés comme de puissants antagonistes non compétitifs de la Phényléphrine. Leurs concentrations inhibitrices 50% (ID50) sont indiquées dans le tableau 2. Comme c'est le cas pour d'autres vasodilatateurs (comme l'Hydralazine), l'- artère caudale est plus sensible que l'aorte à l'effet inhibiteur des dérivés étudiés.

aorte isolée du rat = assay: Inhibition of phenylephrine-induced contraction of isolated rat aorta; type: cell-based; conditions: read-out: EFFET SUR L'AORTE DE RAT I50
Source text: as §2

artère caudale distale = assay: Inhibition of phenylephrine-induced contraction of isolated rat caudal artery, distal segment; type: cell-based; conditions: read-out: EFFET SUR L'ARTERE CAUDALE DE RAT I50 SEGMENT DISTAL
Source text: as §2

muscle lisse = conditions: Raymond Hamet 1952, 1953; cited from earlier work
patients hypertendus = conditions: Faquet, Lisle et Combaz 1954; cited from earlier work
[3] = test system: oreillette droite isolée de cobaye; assay: Frequency of spontaneously beating isolated guinea pig right atrium; type: cell-based; conditions: for Inhibition % du rythme de base / Inhibition % du rythme maximal en présence d'isoprotérénol: mean of 3 experiments ± erreur type; for effet sur la fréquence: result in words, comment on tableau 3
Source text: as §1

[4] = Acute toxicity, DL 50 in mice (Litchfield and Wilcoxon method); type: in vivo, souris; conditions: mouse, in vivo, DL 50 and its upper and lower limits for p = 0,05
Experimental: (§3) La DL 50 a été déterminée chez la souris par la méthode de LITCHFIELD et WILCOXON (J. Pharmacol. 1949 96, 99-113). Les dérivés étudiés ont été administrés en solution aqueuse additionnée de 7% de diméthylformamide, gavage oesophagien de 0,4 ml/20g) à des souris mâles pesant de 20 à 25g.
(§4) C'est pourquoi, il a été comparé au STB 0 par injection intrapéritonéale (même solution et même volume injectés par voie orale).

souris = assay: as above; type: in vivo; conditions: result in words, comment on tableau 4
Experimental: as §3, §4

[5] = test system: rat anesthésié par l' "Inactine"; assay: Cardiac output (thermodilution), arterial pressure and peripheral vascular resistance in Inactine-anaesthetised rats; type: in vivo; parameters: Volume éjection systolique: unit not given here; conditions: Après: 45 minutes after 15 mg.kg^-1 i.p., n=7, mean ± erreur type
Experimental: Les effets sur le débit cardiaque et la résistance vasculaire périphérique ont été mesurés chez le rat anesthésié par l' "Inactine" (70 mg.kg^-1), voie intrapéritonéale). Le débit a été mesuré par thermodilution suivant la technique décrite par HONDAS et al (Path. Biol. 1979, 17 1069-1078). La pression moyenne a été enregistrée à l'aide d'un cathéter placé dans l'artère fémorale du rat. Les mesures ont été faites avant et entre 45 et 60 minutes après l'administration intra-péritonéale des anti-hypertenseurs. Chaque chiffre expérimental représente la moyenne de trois mesures successives. Les résultats, donnés à titre d'exemple dans le tableau 1, ci-après,en ce qui concerne le STB 6, montrent que l'administration de l'anti-hypertenseur provoque une importante chute de pression artérielle imputable à une diminution marquée de la résistance vasculaire périphérique et sans variation significative du débit et du rythme cardiaques, ni du volume d'éjection systolique.

[6] = Solubility in the dosing solution (aqueous solution with 7% dimethylformamide); type: physicochemical; conditions: reason why oral DL 50 could not be determined; result in words
Experimental: as §3, §4

[7] = Concentration 5.10^-5 mole/l, stimulated at 2,5 Hz, mean of 3 experiments ± erreur type, read-out: Variation % de la force contractile de base
[8] = contraction by phényléphrine 1.10^-6M, mean of at least 3 experiments ± erreur type
[9] = contraction by phényléphrine 1.10^-5M, mean of at least 3 experiments ± erreur type
[10] = contraction by phényléphrine 5.10^-6M, mean of at least 3 experiments ± erreur type
[11] = read-out: Variation % de la force contractile de base

| SMILES | activation at 50 µM [1, 7] [%] | effet sur la force contractile [1] | IC50 (artère caudale proximale; [8]) [µM] | IC50 (aorte isolée du rat; [9]) [µM] | IC50 (artère caudale distale; [10]) [µM] | Inhibition % du rythme de base ([3]; Concentration 5.10^-5 mole/l) [%] | Inhibition % du rythme maximal en présence d'isoprotérénol ([3]; Concentration 5.10^-5 mole/l) | effet sur la fréquence [3] | LD50 ([4]; po, per os, male mice 20 à 25g) [mg/kg] | LD50 ([4]; ip.) [mg/kg] | toxicité aiguë, comparison (souris) | IC50 (artère caudale proximale) [µM] | IC50 (aorte isolée du rat) [µM] | IC50 (artère caudale distale) [µM] | other results |
| --- | --- | --- | --- | --- | --- | --- | --- | --- | --- | --- | --- | --- | --- | --- | --- |
| c1ccc2c(c1)CC1c3ccccc3CCN1C2 (stereo not drawn) [STB0, 5,8,13,13a-tétrahydro-6H-dibenzo [a,g] quinolizine, reference compound] | -47 | déprime fortement | 0.3 | 13 | 1.3 | 46 ± 5 | 38 ± 6% | déprime fortement | 464 | 262 | – | – | – | – | effets hypertenseurs de l'adrénaline [2]: inverse les effets hypertenseurs de l'adrénaline; contraction du muscle lisse provoquée par l'ion K^+ (muscle lisse): inhibe la contraction du muscle lisse; action hypotensive (patients hypertendus): exerce une action hypotensive |
| Oc1ccc2c(c1)CCN1Cc3ccccc3CC21 (stereo not drawn) [STB4, 3-hydroxy-5,8,13,13a-tétrahydro-6H-dibenzo [a, g] quinolizine] | – | ne diminuent pas la force contractile | 1 | 26 | 1.9 | – | – | subsistent de façon moins marquée | 464 | – | – | – | – | – | Variation % de la force maximale en présence d'isoprotérénol ([1]; Concentration 45.10^-5 mole/l, stimulated at 2,5 Hz, mean of 3 experiments ± erreur type): 0%; activation at 450 µM ([1]; Concentration 45.10^-5 mole/l, stimulated at 2,5 Hz, mean of 3 experiments ± erreur type, read-out: Variation % de la force contractile de base): 0%; Inhibition % du rythme de base ([3]; Concentration 45.10^-5 mole/l): 13,8 ± 5,8%; Inhibition % du rythme maximal en présence d'isoprotérénol ([3]; Concentration 45.10^-5 mole/l): 28,7 ± 1,8% |
| COc1cc2c(cc1OC)CN1CCc3cc(O)ccc3C1C2 (stereo not drawn) [STB6, 3-hydroxy-10,11-diméthoxy-5,8,13,13a-tétrahydro-6H-dibenzo [a, g] quinolizine] | 32 | augmentent fortement la force contractile | 1.1 | 59 | 2.1 | 8 ± 5 | 21,6 ± 1,2% | subsistent de façon moins marquée | 275 | – | le plus toxique | – | – | – | Variation % de la force maximale en présence d'isoprotérénol ([1]; Concentration 5.10^-5 mole/l, stimulated at 2,5 Hz, mean of 3 experiments ± erreur type): 0%; Volume éjection systolique ([5]; n.s., Avant: 0,71 ± 0,04): 0,78 ± 0,035; débit cardiaque (DC) ([5]; n.s., Avant: 237,7 ± 12,9): 293,9 ±18,7 n.s. ml, mn.kg^-1; Rythme ([5]; n.s., Avant: 386 ± 11): 374 ± 12 n.s. systoles/mn; pression artérielle moyenne (PA) ([5]; p≤ 0,01, Avant: 150,2 ± 3,9): ‡‡‡ 89,1 ± 3,3 mmHg; résistance vasculaire périphérique totale (RVPt) ([5]; p≤ 0,01, Avant: 728,9 ± 29,2): ‡‡‡ 412,2 ± 17,8 dynes.mn.cm^-5.kg^-1 |
| COc1cc2c(cc1OC)CN1CCc3cc(OC(=O)Cc4ccccc4)ccc3C1C2 (stereo not drawn) [STB52, 3-phénacétyloxy-10,11-diméthoxy-5,8,13,13a tétrahydro-6H-dibenzo [a, g] quinolizine] | – | augmentent fortement la force contractile | – | – | – | – | – | subsistent de façon moins marquée | 550 | – | – | 2.1 | 51 | 4.3 | activation at 5 µM [1, 11]: 90%; Inhibition % du rythme de base ([3]; Concentration 5.10^-6 mole/l): 14 ± 7%; Inhibition % du rythme maximal en présence d'isoprotérénol ([3]; Concentration 5.10^-6 mole/l): 17 ± 3% |
| O=C(Cc1ccccc1)Oc1ccc2c(c1)CCN1Cc3ccccc3CC21 (stereo not drawn) [STB69, 3-phénacétyloxy-5,8,13,13a-tétrahydro-6H-dibenzo-[a, g] quinolizine] | – | pratiquement dépourvu d'action | – | – | – | 0 | 12,5 ± 2,7% | pratiquement dépourvu d'action | > 650 | 378 | le moins toxique | 1.5 | 58 | 3.1 | activation at 50 µM [1, 11]: 12.6%; solubilité [6]: solubilité insuffisante |
